# Marks after values point to notes of the source that are not given here.
# How the values were obtained:
# [1] = test system: termite, Odontotermes sp.; assay: Topical (direct contact toxicity) assay against termites, planar arena; type: in vivo; conditions: 25 ml/lit., after 24 hours, mean of five replications
# Experimental: (§1) The formulation was evaluated under laboratory conditions following standard protocols for its contact and surface toxicity, against termite, Odontotermes sp. to simulate real field conditions. In the topical (direct contact toxicity) assay, the bio-termiticide was sprayed directly on the termites and mortality (death), repellence (moving away) or anti-feedant (non-feeding) effects were studied. This assay was carried out in simulation of curative management viz., post-infestation management. In the surface toxicity assay the surface on which the termites walk over was sprayed, termites were allowed to move on the treated surface later and mortality (death), repellence (moving a way) or anti-feedant (non-feeding) effects were studied. This assay was carried out in simulation of preventive management viz., pre-infestation management. These two methods were planned as they suffice the current needs of pre- and post-infestation termite management.
# (§2) Both the topical and surface toxicity bioassays were carried out using planar arena assay method (Chouvenc et al. 20112011, Planar Arenas for Use in Laboratory Bioassay Studies of Subterranean Termites (Rhinotermitidae). Florida Entomologist, 94(4): 817-826) with minor modifications. Seven concentrations of the cedar wood oil Emulsifiable concentrate formulation, standard check Chlorpyriphos and untreated control were used in the bioassay. […]
# [2] = test system: termite, Odontotermes sp.; assay: Surface toxicity assay against termites, planar arena; type: in vivo; conditions: 25 ml/lit., termites released one hour after spraying, mean of five replications
# Experimental: as §1, §2
# decay fungi = assay: Protection of wood from decay fungi, Marandi wood blocks kept in open space for one year; conditions: Marandi wood blocks sprayed, untreated control infested by Fusarium oxysporum
# Excerpt: Blocks of Marandi wood of size 30×15×4 cm (L×B×W) were taken for the experiment. The emulsion of cedar wood oil emulsifiable concentrate formulation in water was sprayed on two replicates of wooden blocks using a band sprayer. No emulsion was applied on untreated control. Market sample of Propiconazole was used as standard check for comparing the effect of this botanical cedar wood oil emulsifiable concentrate formulation. The blocks after application and untreated control were kept in open space for a period of one year starting from the month of November up to the month of October to subject the blocks to winter, summer and rainy season. Observations on the wooden blocks were taken to check the infestation of fungi and damage caused by fungi.
SMILES,Percent Mortality [1],Percent repellence [1],Percent Mortality [2],Percent repellence [2],infestation of fungi on treated wooden blocks (decay fungi)
CCOP(=S)(OCC)Oc1nc(Cl)c(Cl)cc1Cl [Chlorpyriphos],92 (73.57)^b Percent,0 (0.29)^e Percent,80 (63.43)^b Percent,4 (11.54)^e Percent,–
CCCC1COC(Cn2cncn2)(c2ccc(Cl)cc2Cl)O1 (centres unmarked) [Propiconazole],–,–,–,–,No infestation of the fungi
